Experimental data as given in ChEMBL document CHEMBL5523667, “Blood-stage antimalarial activity, favourable metabolic stability and in vivo toxicity of novel piperazine linked 7-chloroquinoline-triazole conjugates” (Eur J Med Chem, 2024).

What was measured:
[1] = Drug metabolism in mouse liver S9 fraction assessed as mono-hydroxylation mediated metabolite formation at 2 uM measured for 90 mins by LC-MS/MS analysis; format: ADME, subcellular; details: s9, 1.5 h
Plasmodium falciparum [2] = test: Antimalarial activity against chloroquine-resistant Plasmodium falciparum K1 assessed as inhibition of parasite growth by lactate dehydrogenase assay; format: functional, organism-based
[3] = Toxicity in mouse assessed as grooming time at 100 mg/kg by open field test (reference value: 10.91 +/- 2.01 sec); format: organism-based; details: in vivo, 2 s
Plasmodium berghei = test: Antimalarial activity against Plasmodium berghei ANKA infected in female BALB/c mouse assessed as reduction in parasitemia at 50 mg/kg, ip measured on day 4 post infection by Giemsa staining based light microscopy (Rvb >17 %); format: functional; design: scale not given: the % may be the effect or the level left
[4] = molecular target: T1, Falcipain 2 (Plasmodium falciparum) (UniProt Q9N6S8); test: Binding affinity to N-terminal 6His-tagged recombinant Plasmodium falciparum FP2 expressed in Escherichia coli M15 assessed as dissociation rate constant (Koff) by surface plasmon resonance analysis
T1 sequence (whole entry): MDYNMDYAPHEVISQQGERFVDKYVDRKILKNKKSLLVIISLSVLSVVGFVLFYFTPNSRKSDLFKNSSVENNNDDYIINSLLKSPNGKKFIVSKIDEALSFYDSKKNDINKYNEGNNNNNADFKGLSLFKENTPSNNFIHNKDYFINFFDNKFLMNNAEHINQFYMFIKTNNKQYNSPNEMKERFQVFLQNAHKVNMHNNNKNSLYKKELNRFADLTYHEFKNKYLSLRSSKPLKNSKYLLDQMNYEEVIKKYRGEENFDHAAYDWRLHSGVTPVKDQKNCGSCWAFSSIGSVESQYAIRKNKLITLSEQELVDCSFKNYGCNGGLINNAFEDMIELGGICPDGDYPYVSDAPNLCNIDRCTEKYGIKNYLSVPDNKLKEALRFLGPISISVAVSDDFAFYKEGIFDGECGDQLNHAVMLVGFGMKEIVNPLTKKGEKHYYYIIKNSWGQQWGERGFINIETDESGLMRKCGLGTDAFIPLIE

[5] = Toxicity in mouse assessed as cell apoptosis in kidney at 100 to 200 mg/kg measured after 7 days by hematoxylin and eosin staining based analysis; format: organism-based; details: in vivo, 168 h, dose 100-200 mg/kg, time 7 day
[6] = Drug metabolism in human liver S9 fraction assessed as mono-hydroxylation mediated metabolite formation at 2 uM measured for 90 mins by LC-MS/MS analysis; format: ADME, subcellular; details: s9, 1.5 h
[7] = Stability of the compound in simulated intestinal fluid at pH 6.8 at 1 uM measured after 120 mins by LC-MS/MS analysis; format: ADME; details: simulated gi fluid, pH 6.8, 2 h
Falcipain-3 [8] = molecular target: T2, Falcipain-3 (Plasmodium falciparum 3D7, UniProt Q8IIL0); test: Binding affinity to N-terminal 6His-tagged recombinant Plasmodium falciparum FP3 expressed in Escherichia coli M15 assessed as dissociation constant incubated for 15 mins in presence of lysine reactive dye by microscale thermophoretic analysis
T2 sequence (Q8IIL0 whole entry): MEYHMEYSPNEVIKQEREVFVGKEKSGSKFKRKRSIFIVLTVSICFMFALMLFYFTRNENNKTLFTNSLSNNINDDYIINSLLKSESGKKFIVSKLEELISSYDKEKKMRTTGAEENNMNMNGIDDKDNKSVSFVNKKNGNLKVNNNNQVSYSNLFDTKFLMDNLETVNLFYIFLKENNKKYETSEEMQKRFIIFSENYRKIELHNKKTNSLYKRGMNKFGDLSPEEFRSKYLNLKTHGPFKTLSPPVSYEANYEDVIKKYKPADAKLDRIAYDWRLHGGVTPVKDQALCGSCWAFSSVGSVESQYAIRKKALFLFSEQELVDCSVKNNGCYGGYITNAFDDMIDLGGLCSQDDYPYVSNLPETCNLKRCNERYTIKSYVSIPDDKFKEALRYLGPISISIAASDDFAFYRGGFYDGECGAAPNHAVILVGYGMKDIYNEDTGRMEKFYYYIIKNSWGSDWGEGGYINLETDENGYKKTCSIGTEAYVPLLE

Falcipain-3 [9] = molecular target: T2, Falcipain-3; test: Binding affinity to N-terminal 6His-tagged recombinant Plasmodium falciparum FP3 expressed in Escherichia coli M15 assessed as dissociation constant by surface plasmon resonance analysis
[10] = molecular target: T3, Falcipain-3 (Plasmodium falciparum 3D7) (UniProt Q8IIL0); test: Binding affinity to N-terminal 6His-tagged recombinant Plasmodium falciparum FP3 expressed in Escherichia coli M15 assessed as dissociation rate constant (Koff) by surface plasmon resonance analysis
T3 sequence (whole entry): T2 sequence (Q8IIL0 whole entry)

[11] = Toxicity in mouse assessed as cell necrosis in kidney at 100 to 200 mg/kg measured after 7 days by hematoxylin and eosin staining based analysis; format: organism-based; details: in vivo, 168 h, dose 100-200 mg/kg, time 7 day
[12] = Toxicity in mouse assessed as grooming time at 200 mg/kg by open field test (reference value: 10.91 +/- 2.01 sec); format: organism-based; details: in vivo, 2 s
Plasmodium falciparum [13] = test: Resistance index, ratio of IC50 for antimalarial activity against chloroquine-resistant Plasmodium falciparum K1 to IC50 for antimalarial activity against chloroquine-sensitive Plasmodium falciparum NF54; format: functional
[14] = Toxicity in mouse assessed as effect on exploratory activity at 100 to 200 mg/kg measured over 5 mins by open field arena test; format: organism-based; details: in vivo, dose 100-200 mg/kg
[15] = molecular target: T3, Falcipain-3 (Plasmodium falciparum 3D7); test: Inhibition of N-terminal 6His-tagged recombinant Plasmodium falciparum FP3 expressed in Escherichia coli M15 using Z-Phe-Arg-AMC as substrate at 10 uM measured after 30 mins by microplate reader analysis relative to control
Falcipain 2 = molecular target: T4, Falcipain 2 (Plasmodium falciparum, UniProt Q9N6S8); test: Competitive inhibition of N-terminal 6His-tagged recombinant Plasmodium falciparum FP2 expressed in Escherichia coli M15 assessed as inhibition constant using Z-Phe-Arg-AMC as substrate measured after 30 mins by microplate reader analysis
T4 sequence (Q9N6S8 whole entry): T1 sequence (whole entry)

[16] = molecular target: T1, Falcipain 2 (Plasmodium falciparum); test: Binding affinity to N-terminal 6His-tagged recombinant Plasmodium falciparum FP2 expressed in Escherichia coli M15 assessed as association rate constant (Kon) by surface plasmon resonance analysis
Plasmodium falciparum [17] = test: Synergistic antimalarial activity against chloroquine-sensitive Plasmodium falciparum 3D7 assessed as fractional inhibitory concentration incubated for 60 hrs in presence of chloroquine by SYBR Green staining based analysis; format: functional
[18] = Toxicity in mouse assessed as effect on food intake at 100 to 200 mg/kg measured for 7 days; format: organism-based; details: in vivo, 168 h, dose 100-200 mg/kg, time 7 day
[19] = Toxicity in mouse assessed as latency to fall off the rotating rod by measuring neuromuscular coordination index at 100 mg/kg by rotarod apparatus (reference value: 12.45 +/- 1.48 ); format: organism-based; details: in vivo
[20] = Toxicity in mouse assessed as cell apoptosis in liver at 100 to 200 mg/kg measured after 7 days by hematoxylin and eosin staining based analysis; format: organism-based; details: in vivo, 168 h, dose 100-200 mg/kg, time 7 day
[21] = Stability of the compound in tris buffer at pH 7.4 at 1 uM measured after 120 mins by LC-MS/MS analysis; format: physicochemical; details: pH 7.4, 2 h
Hemozoin = test: Inhibition of beta-hematin formation in Plasmodium falciparum by UV-visible SpectraMax P340 plate reader analysis
Plasmodium falciparum [22] = test: Antimalarial activity against chloroquine-sensitive Plasmodium falciparum NF54 assessed as inhibition of parasite growth by lactate dehydrogenase assay; format: functional, organism-based

Compound: O=C(Cn1cc(CN2CCN(c3ccnc4cc(Cl)ccc34)CC2)nn1)Nc1cccc([N+](=O)[O-])c1
- Drug metabolism [1]: Metabolite_Detected
- IC50 (Plasmodium falciparum [2]): 1.89 µM
- Time [3]: 12.04 s
- Activity (Plasmodium berghei): >7%
- K [4]: 0.097 s⁻¹
- Activity [5]: Non-Toxic
- Drug metabolism [6]: Metabolite_Detected
- Stability [7]: Stable
- Kd (Falcipain-3 [8]): 54.4 µM
- Kd (Falcipain-3 [9]): 74 µM
- K [10]: 0.305 s⁻¹
- Activity [11]: Non-Toxic
- Time [12]: 14.31 s
- Ratio IC50 (Plasmodium falciparum [13]): 1.95
- Activity [14]: Non-Toxic
- inhibition [15]: 28.5%
- Ki (Falcipain 2): 0.527 µM
- K [16]: 680 M⁻¹ s⁻¹
- fractional inhibitory concentration index (FICI) (Plasmodium falciparum [17]): 0.5
- Activity [18]: Non-Toxic
- Activity_index [19]: 11.53
- Activity [20]: Non-Toxic
- Stability [21]: Stable
- IC50 (Hemozoin): 19.9 µM
- IC50 (Plasmodium falciparum [22]): 0.92 µM
